Measured values taken from PMC12276035, “Novel Para‐Phenylenediamine‐Based Derivatives as Receptor Tyrosine Kinase‐like Orphan Receptor 1 (ROR1) Inhibitors: An In Vitro Preliminary Characterization” (Chemmedchem, 2025).

How the values were obtained:
[1] = tested on: JeKo‐1 cells; assay: MTT cell viability assay, JeKo‐1; type: cell-based; conditions: Homo sapiens, cytotoxicity, treated for 72 h, read-out: EC50 ± SD JeKo‐1
Experimental: Cytotoxicity studies, assessing the activity of the synthetized compounds, were performed only on the molecules showing the best binding profile in the SPR assay. MTT test was performed on two cell lines known for overexpressing ROR1, particularly MTT assays were conducted on JeKo‐1 (human mantle cell lymphoma) and SH‐SY5Y (neuroblastoma), exposing them to different concentrations of compounds for 72 h (Table 2 ). […] This increased effectiveness is likely due to the high expression of the target protein in leukemia and other hematologic malignancies. […] A key structural difference in 18 and 19 compared to active compounds is the absence of the trifluoromethyl group on the aromatic ring. Indeed, the removal of the trifluoromethyl group (18) or the incorporation of an electron‐donating substituent (19) alters the interaction with the ATP‐binding pocket.
The JeKo‐1 mantle cell lymphoma (MCL) cell line, derived from mantle cell lymphoma of B‐cell lineage, was obtained from ATCC and was grown in RPMI supplemented with 10% v/v fetal bovine serum, 2 mM L‐glutamine, 100 U mL^−1 penicillin, and 0.1 mg mL^−1 streptomycin.
Cell viability was established by measuring mitochondrial metabolic activity with MTT. In brief, SH‐SY5Y (20 × 10^3 cells/well) and JeKo‐1 (10 × 10^3 cells/well) were plated into 96‐well plates for 24 h, then the compounds (1.56–50 μM) were added. […], cells were replaced with a fresh medium containing 0.5 mg mL^−1 MTT.^[ [45] ^] Cells were incubated for 1–3 h at 37 °C, then the medium was discarded, and formazan blue crystals in the cells dissolved with 100 μL per well of a solution containing isopropanol/HCl 0.1 M. The absorbance was measured at 570 nm using a microplate reader (Multiskan Go, Thermo Scientific, Waltham, MA, USA). Cell viability was expressed as a percentage relative to the untreated cells cultured in medium with 0.1% DMSO and set to 100%, whereas 10% DMSO was used as positive control and set to 0% of viability. The EC50 values were calculated using GraphPad Prism 8.0 software by nonlinear regression of dose‐response inhibition.

[2] = tested on: ROR1 pathways in JeKo‐1 cells; assay: Western blotting of ROR1 pathway; type: cell-based, human; conditions: western blot
Excerpt: This time‐dependent reduction in P‐ROR1 is particularly significant, as it represents the upstream event that drives the observed proapoptotic downstream effects. […] Indeed, activation of ROR1 initiates the nonclassical Wnt (PI3K/AKT/mTOR) pathway and upregulates the phosphorylation level of AKT, which contributes to the survival and proliferation of cancer cells.^[ [25] ^]
Figure 6 Molecular effects of 17 on ROR1 pathways in JeKo‐1 cells. For each western blotting analysis, three independent experiments were performed, and the SD is expressed by error bars. The relative fold change versus untreated cells, set as 1, is shown in the graph. *, **, and *** denote respectively p < 0.05, p < 0.01, and p < 0.001 versus Ctrl.
JeKo‐1 cells (2.5 × 10^6 cells/well) were seeded in a T‐75 flask, treated with compound 17 (10 μM) for different times (4, 8, and 24 h). After treatments, cells were washed twice with PBS and detached with a scraper, centrifuged at 655 g × 10 min at 4 °C. Full proteins were extracted by lysis buffer (20 mM Tris‐HCl pH 7.5, 150 mM NaCl, 1 mM Na2EDTA, 1 mM EGTA, 2% NP‐40, 1% sodium deoxycholate, 1× protease and phosphatase inhibitor cocktail) for 30 min. Then, cell lysates were centrifuged at 4850 g for 20 min at 4 °C. 60 μg of total proteins were run on 8% SDS‐PAGE and transferred to nitrocellulose membranes using a minigel apparatus (Bio‐Rad Laboratories, Hercules, CA, USA). Blots were blocked in phosphate‐buffered saline, containing Tween‐20 0.1% and 5% BSA for 1 h at room temperature and incubated overnight with specific primary antibodies at 4 °C with slight agitation. α‐Tubulin was used as the loading control. […] Antigen‐antibody complexes were detected by enhanced chemiluminescence (ECL kit, Amersham, Germany). […]

O=C(NCc1ccc(-c2ccccc2)cc1)Nc1ccc(NCC2CCNCC2)cc1C(F)(F)F [Compound 17] was tested, and the EC50 [1] was 10.3 ± 2.86 µM, the AKT phosphorylation ([2]; JeKo‐1, 10 μM, 4, 8 and 24 h) was “significant decrease” and the ROR1 phosphorylation ([2]; JeKo‐1, 10 μM, 4, 8 and 24 h) was “marked reduction”. For the same molecule, the “total ROR1 protein levels” value ([2]; JeKo‐1, 10 μM, 24 h) was “increase”.
